Data as given in patent US12595504B2, “Methods for screening compounds for bactericidal activity and for determining the sensitivity of bacterial samples” (priority 2020, dated 2026).
Converted amounts (≈) assume the structure as drawn. Where two headings read alike, the source gives them in different places.

Experiments:
Escherichia coli MG1655 = experiment: Antibiotic MIC determination (serial twofold dilutions, OD600 during 17 hours at 37° C.); format: cell-based; settings: for MIC: Escherichia coli
Experimental: The Minimal Inhibitory Concentration (MIC) of the antibiotics was determined under the same culture conditions as the tests using the ATP assay kit. […] An exponentially growing culture (OD600=0.3) was added to each well (60 μl/well) of a sterile microtiter plate containing the test concentration of antibiotic (40 μl/well). The volume was completed to 120 μl with medium and OD600 nm measurements were performed using a microtiter plate reader (Infinite 200 PRO, TECAN) during 17 hours at 37° C.
In all the following experiments, the MIC values were measured for each antibiotic with parameters such as temperature, OD600 and equipment identical to those used for the bioluminescence assay.

[1] = system: E. coli MG1655 reporter cells; format: cell-based, Escherichia coli
Experimental: The classical luciferase was from Molecular Probes (ATP Determination Kit (A22066)). The thermostable luciferase was from “CheckLite AT100” (kikkoman). The Luciferin-luciferase reagents were prepared following manufacturer instructions. Bacteria from exponentially growing cultures (OD600=0.3) were added to each well (60 μl/well) of a black 96-microtiter plate (Greiner Bio-one, 655076) and 20 μl of the luciferin-luciferase reagent solution was added. The microtiter plate was incubated 5 min at 37° C. for reaction with the luciferase to eliminate traces of extracellular ATP. Then 40 μl of antibiotic solution (3 times concentrated) prepared in the culture medium were added. Bioluminescence of each well was monitored for 4 hours under shaking (218 rpm) and at 28 or 37° C., depending on the experiments (see legends of Figures). The reagent stability in presence or absence of antibiotics was checked in control experiments without bacteria but with 4 pmoles of ATP. Tests were also performed in 384-microtiter plates (Greiner Bio-one, 784076).
Aminoglycosides are bactericidal antibiotics causing translational miscoding with lethal consequences for the cell. Leakage of small molecules following an aminoglycoside shock was previously identified by different methods including radiolabelling. Therefore, the inventors investigated the response of live cells to aminoglycoside stress.

thermostable luciferase = molecular target: T1, thermostable luciferase (Nipponoluciola cruciata, UniProt P13129, A536K/G484A/G534A/I532L/M501V/N494T/N510T/P452A/P477D/R513K/R519V/S465N/S491H/S509T/T217I/T219I/V239I/V459I/V474L/V478D/V500I); format: biochemical
T1 construct: purchased Kikkoman CheckLite AT100
T1 sequence (P13129 other isoform, or with tags, fused parts or gaps with the stated changes): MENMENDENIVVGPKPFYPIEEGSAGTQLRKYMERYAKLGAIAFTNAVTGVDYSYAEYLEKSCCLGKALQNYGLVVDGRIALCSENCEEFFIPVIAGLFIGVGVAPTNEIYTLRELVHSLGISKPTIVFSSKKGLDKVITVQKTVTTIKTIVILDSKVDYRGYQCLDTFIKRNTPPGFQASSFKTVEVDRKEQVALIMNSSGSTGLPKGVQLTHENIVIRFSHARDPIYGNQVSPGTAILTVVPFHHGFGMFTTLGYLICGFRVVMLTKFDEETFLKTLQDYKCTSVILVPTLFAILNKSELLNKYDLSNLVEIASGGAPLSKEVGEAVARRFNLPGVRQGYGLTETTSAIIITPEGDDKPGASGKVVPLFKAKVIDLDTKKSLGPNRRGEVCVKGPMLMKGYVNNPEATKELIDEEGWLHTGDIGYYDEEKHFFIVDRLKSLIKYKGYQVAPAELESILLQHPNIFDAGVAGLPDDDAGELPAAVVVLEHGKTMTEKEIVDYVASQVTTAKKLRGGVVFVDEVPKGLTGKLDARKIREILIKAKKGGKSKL
Experimental: FIG. 5. […] The luciferase-luciferin reagent was preincubated 40 min at 37° C. in presence of various antibiotics in LB before the addition of 30 nM ATP (in the absence of bacteria).
(§1) The classical luciferase was from Molecular Probes (ATP Determination Kit (A22066)). The thermostable luciferase was from “CheckLite AT100” (kikkoman). The Luciferin-luciferase reagents were prepared following manufacturer instructions. Bacteria from exponentially growing cultures (OD600=0.3) were added to each well (60 μl/well) of a black 96-microtiter plate (Greiner Bio-one, 655076) and 20 μl of the luciferin-luciferase reagent solution was added. The microtiter plate was incubated 5 min at 37° C. for reaction with the luciferase to eliminate traces of extracellular ATP. Then 40 μl of antibiotic solution (3 times concentrated) prepared in the culture medium were added. Bioluminescence of each well was monitored for 4 hours under shaking (218 rpm) and at 28 or 37° C., depending on the experiments (see legends of Figures). The reagent stability in presence or absence of antibiotics was checked in control experiments without bacteria but with 4 pmoles of ATP. […]
Bioluminescence was thus measured after preincubation of luciferase-lucifering reagent with the antibiotics at their maximal concentration used in this study in LB before the addition of 30 nM ATP (in the absence of bacteria).

E. coli MG1655 KanR = experiment: ATP leakage assay on aminoglycoside resistant strain (KanR, APH(3′)-IIa); format: cell-based, Escherichia coli; settings: MOPS minimal medium (glucose 0.4%), increasing concentrations, 37° C.
Experimental: FIG. 7. Absence of ATP leakage with an aminoglycoside resistant strain E. coli MG1655. The resistant strain (MG KanR) contains the gene for expression of the aminoglycoside O-phosphotransferase APH(3′)-IIa. ATP release of resistant (KanR) or non-resistant (WT) MG 1655 E. coli cells exposed in MOPS minimal medium (glucose 0.4%) to increasing concentrations of neomycin at 37° C. ATP leakage was absent for the resistant strain (KanR).
as §1

E. coli = experiment: Survival assay (kill curves, CFU) with neomycin; format: cell-based, Escherichia coli; settings: different neomycin concentrations, LB
S. aureus USA300 = experiment: CFU kill assay of stationary phase cells with or without centrifugation; format: cell-based, Staphylococcus aureus
Experimental: FIG. 4. A. Centrifugation with change for fresh medium prior to aminoglycoside exposure stimulates drug bactericidal effect. S. aureus USA300 in TSB medium with 0.25% glucose was incubated until stationary phase has been reached at 37° C. Cells were either centrifuged at 12 000 rpm for 5 minutes (+) or placed at 37° C. without centrifugation (≠). After centrifugation, pellets were washed with fresh broth and placed at 37° C. Depending on the test, different concentrations of neomycin were added. S. aureus USA300 samples that were centrifuged and washed with fresh broth are more sensitive to neomycin. For instance, bacterial CFU go below the detection threshold (10^2 CFU/ml) at 2 hours for 8 mM and 2 mM concentrations while it takes 2 more hours for the 0.5 mM concentration. Bars represent the standard error from the mean (SEM) calculated on GraphPad Prism version 8.4.1. B. S. aureus USA300 in TSB medium with 0.25% glucose was incubated until stationary phase has been reached at 37° C. Cells were either centrifuged at 12 000 rpm for 5 minutes or placed at 37° C. without centrifugation. After centrifugation, pellets were washed with fresh broth and placed at 37° C. A volume of 100 μL of fresh media with 4 mM of neomycin was added to all the tubes (final concentration at 2 mM), centrifuged or not, 5, 15, 30, 60 and 120 minutes post-centrifugation. Samples were incubated for a total of 2 hours with the neomycin before being washed three times with PBS 1×, diluted and incubated on tryptic soy agar. The next day, colony forming units/mL were counted. Bars represent the standard deviation (SD) calculated on GraphPad Prism version 8.4.3.

[2] = system: biofilm of the multidrug-resistant Staphylococcus aureus USA300 strain; experiment: Drug dependent ATP release from biofilm; format: cell-based; settings: washed biofilm, 37° C., FIG. 20b
Experimental: FIG. 20. Drug dependent ATP release from biofilm of the multidrug-resistant Staphylococcus aureus USA300 strain. A, Control experiment at 37° C. in absence of antibiotic. Biofilms were washed with MOPS medium prior to be exposed to neomycin in the bioluminescent assay. Biofilms were obtained as described in the Examples section and washed twice with MOPS-G medium. Wash solutions were tested for the presence of ATP with the bioluminescence assay. […] Washed biofilms were then tested for ATP release. Signals were present in the first 40 min. This ATP release probably originates from shaking of the biofilm in the plate reader with physical perturbation of the biofilm. B, Biofilm response at 37° C. to drug exposure.
Biofilms were produced by following standard protocols. Briefly, S. aureus USA300 was incubated overnight in tryptic-soy broth (with 0.25% glucose) at 37° C. with 180 rpm agitation. Wells of a FLUOTRAC™ microplate (sterilized beforehand) were then filled with 150 μl of the inoculated broth previously diluted to obtain average concentrations between 10^5-10^6 CFU/ml. The microplate was covered and incubated at 37° C. for 18 hours. Biofilms were then washed twice with 150 μl of MOPS. 80 μl of the wash solution was not discarded and placed in an adjacent well to observe the quantity of ATP it contained. […]

[3] = Comparative stability assay of classical and thermostable luciferase at 37° C.; format: physicochemical
Experimental: For performing this assay, a classical luciferase (firefly luciferase; Molecular Probes ATP determination kit A22066) and the thermostable luciferase (Checklite kit, Kikkoman, AAE43251.1) were used according to the manufacturer's instructions. Both types of luciferases were added to rich LB or minimal MOPS-Glucose media pre-heated at 37° C. At various times during incubation, aliquots of the solutions were collected, supplemented with reagents and mixed with 0.8 pmole of ATP for bioluminescence readings. Immediately after mixing, bioluminescence measurements were performed at 37° C. using an InfinitePro200, TECAN plate reader in a total volume of 12 μL on a 384-wells microtiter plate (Greiner Bio-one, 784076).

[4] = MG1655, read-out: MIC in MOPS glucose 0.4%, MOPS minimal medium glucose 0.4%, 37° C.
[5] = MG1655, LB medium, OD600 0.15 final, 37° C., read-out: MIC in LB
[6] = LB medium, OD600 0.15 final, 37° C.

Compound: COc1ccc(C[C@H](N)C(=O)N[C@H]2[C@@H](O)[C@H](n3cnc4c(N(C)C)ncnc43)O[C@@H]2CO)cc1 [Puromycin]
- MIC (Escherichia coli MG1655; [4]): 871 mg/L (≈ 1850 µM)
- MIC (Escherichia coli MG1655; [5]): 435 mg/L (≈ 923 µM)
- MIC in LB (Escherichia coli MG1655; [6]): 377 mg/L (≈ 800 µM)
- ATP leakage ([1]; sub-MIC concentrations, LB, FIG. 9): very weak leakage
- Effect on the activity of the bioluminescence assay (thermostable luciferase; preincubation with antibiotic in LB, 30 nM ATP, no bacteria, inhibition only at concentration above the MIC): significant inhibition of bioluminescence

Compound: COc1cc(Cc2cnc(N)nc2N)cc(OC)c1OC [Trimethoprim]
- MIC (Escherichia coli MG1655; [4]): 6.25 mg/L (≈ 21.5 µM)
- MIC (Escherichia coli MG1655; [5]): 50 mg/L (≈ 172 µM)
- Concentration above which the drug inhibits the luciferase reaction (thermostable luciferase): above 200 μg/mL

Compound: Neomycin
- MIC in LB (Escherichia coli MG1655; [6]): 22.8 mg/L
- MIC in MOPS glucose 0.4% (Escherichia coli MG1655; MOPS minimal medium glucose 0.4%, 37° C.): 0.8 mg/L
- Experimental MIC (Escherichia coli MG1655; Mueller Hinton media, EUCAST inoculum): 3.12 mg/L
- Shape of ATP release trace ([1]; LB medium, 37° C., FIG. 8): bi-phasic
- Shape of ATP release trace ([1]; MOPS minimal medium (glucose 0.4%), FIG. 11): monophasic
- Lag time before ATP ([1]; antibiotic at 5.6 μg/mL, LB, 37° C.): 48.6 min
- Lag time before ATP ([1]; antibiotic at 11.25 μg/mL, LB, 37° C.): 42.4 min
- Lag time before ATP ([1]; antibiotic at 22.8 μg/mL, LB, 37° C.): 16.3 min
- Lag time before ATP ([1]; antibiotic at 45.0 μg/mL, LB, 37° C.): 12.8 min
- Lag time before ATP ([1]; antibiotic at 91.0 μg/mL, LB, 37° C.): 9.4 min
- Lag before ATP release (shortest, incompressible value) ([1]; highest concentrations tested, LB, 37° C.): about 9.4 min
- ATP leakage (E. coli MG1655 KanR): absent
- Number of colonies forming units (CFU) during the first 90 minutes (E. coli): remained constant
- Time at which bacterial CFU go below the detection threshold (10^2 CFU/ml) (S. aureus USA300; 0.5 mM, samples centrifuged and washed, compared with 8 mM and 2 mM): 2 more hours
- Time at which bacterial CFU go below the detection threshold (10^2 CFU/ml) (S. aureus USA300; 2 mM, samples centrifuged and washed with fresh broth): 2 hours
- Time at which bacterial CFU go below the detection threshold (10^2 CFU/ml) (S. aureus USA300; 8 mM, samples centrifuged and washed with fresh broth): 2 hours
- ATP release from biofilm [2]: triggered ATP release

Compound: classical firefly luciferase: firefly luciferase; Molecular Probes ATP determination kit A22066, not thermostable
- Loss of activity ([3]; LB medium, after 12 minutes of incubation): 70%
- Loss of activity ([3]; minimal MOPS-G medium, in 30 minutes): more than 80%
